Source: patent US20200390100A1, “SUBSTITUTED N-HETEROCYCLYL- AND N-HETEROARYL-TETRAHYDROPYRIMIDINONES AND THE SALTS THEREOF, AND THE USE OF SAME AS HERBICIDAL ACTIVE SUBSTANCES” (Bayer Aktiengesellschaft, priority 2017, published 2020)

Key:
Type in all cases: in vivo
[1] = test system: Poa annua; assay: Herbicidal post-emergence action (Part 2), 1280 g/ha; conditions: application rate 1280 g/ha, rated visually after about 3 weeks, Table C2
Procedure: (§1) Seeds of mono- and dicotyledonous weed plants were placed in plastic pots in sandy loam soil (doubly sown with in each case one species of mono- or dicotyledonous weed plants per pot), covered with soil and cultivated in a greenhouse under controlled growth conditions. 2 to 3 weeks after sowing, the test plants were treated at the one-leaf stage. The compounds of the invention, formulated in the form of wettable powders (WP) or as emulsion concentrates (EC), were applied onto the green parts of the plants as aqueous suspension or emulsion with addition of 0.5% additive at a water application rate of 600 liters per hectare (converted). After the test plants had been kept in the greenhouse under optimum growth conditions for about 3 weeks, the activity of the preparations was rated visually in comparison to untreated controls. For example, 100% activity=the plants have died, 0% activity=like control plants. Tables C1 to C7 below show the effects of selected compounds of the general formula (I) according to Tables 1.1 to 1.150 on various harmful plants and at an application rate corresponding to 1280 g/ha, which were obtained by the experimental procedure mentioned above.

[2] = test system: Matricaria inodora; assay: as above; conditions: application rate 1280 g/ha, rated visually after about 3 weeks, Table C6
Procedure: as §1

[3] = test system: Amaranthus retroflexus; assay: as above; conditions: application rate 1280 g/ha, rated visually after about 3 weeks, Table C5
Procedure: as §1

[4] = test system: Stellaria media; assay: as above; conditions: application rate 1280 g/ha, rated visually after about 3 weeks, Table C7
Procedure: as §1

[5] = test system: Setaria viridis; assay: Herbicidal pre-emergence action (Part 2), 1280 g/ha; conditions: application rate 1280 g/ha, scored visually after about 3 weeks, Table D4
Excerpt: (§2) Seeds of mono- and dicotyledonous weed plants were placed in plastic pots in sandy loam soil (doubly sown with in each case one species of mono- or dicotyledonous weed plants per pot) and covered with soil. The compounds of the invention, formulated in the form of wettable powders (WP) or as emulsion concentrates (EC), were then applied onto the surface of the covering soil as aqueous suspension or emulsion with addition of 0.5% additive at a water application rate of 600 liters per hectare (converted). After the treatment, the pots were placed in a greenhouse and kept under good growth conditions for the test plants. After about 3 weeks, the effect of the preparations was scored visually in comparison with untreated controls as percentages. For example, 100% activity=the plants have died, 0% activity=like control plants. Tables D1 to D8 below show the effects of selected compounds of the general formula (I) according to Tables 1.1 to 1.150 on various harmful plants and at an application rate corresponding to 1280 g/ha, which were obtained by the experimental procedure mentioned above.

[6] = test system: Abutilon theophrasti; assay: as above; conditions: application rate 1280 g/ha, scored visually after about 3 weeks, Table D5
Excerpt: as §2

[7] = test system: Poa annua; assay: as above; conditions: application rate 1280 g/ha, scored visually after about 3 weeks, Table D3
Excerpt: as §2

[8] = test system: Matricaria inodora; assay: as above; conditions: application rate 1280 g/ha, scored visually after about 3 weeks, Table D7
Excerpt: as §2

[9] = test system: Amaranthus retroflexus; assay: as above; conditions: application rate 1280 g/ha, scored visually after about 3 weeks, Table D6
Excerpt: as §2

[10] = test system: Echinochloa crus-galli; assay: as above; conditions: application rate 1280 g/ha, scored visually after about 3 weeks, Table D1
Excerpt: as §2

[11] = test system: Stellaria media; assay: as above; conditions: application rate 1280 g/ha, scored visually after about 3 weeks, Table D8
Excerpt: as §2

[12] = test system: Setaria viridis; assay: Post-emergence herbicidal action, greenhouse, 320 g/ha; conditions: application rate 320 g/ha, rated visually after about 3 weeks vs untreated controls
Procedure: (§3) Seeds of monocotyledonous and dicotyledonous weeds and crop plants were placed in sandy loam in plastic or wood-fiber pots, covered with soil and cultivated in a greenhouse under controlled growth conditions. 2 to 3 weeks after sowing, the test plants were treated at the one-leaf stage. The compounds of the invention, formulated in the form of wettable powders (WP) or as emulsion concentrates (EC), were then sprayed onto the green parts of the plants as aqueous suspension or emulsion with addition of 0.5% additive at a water application rate of […] (converted). After the test plants had been kept in the greenhouse under optimum growth conditions for about 3 weeks, the activity of the preparations was rated visually in comparison to untreated controls. For example, 100% activity=the plants have died, 0% activity=like control plants. Tables A1 to A14 below show the effects of selected compounds of the general formula (I) according to Tables 1.1 to 1.150 on various harmful plants and at an application rate corresponding to 320 g/ha, which were obtained by the experimental procedure mentioned above.

[13] = test system: Viola tricolor; assay: as above; conditions: application rate 320 g/ha, rated visually after about 3 weeks vs untreated controls
Procedure: as §3

[14] = test system: Amaranthus retroflexus; assay: as above; conditions: application rate 320 g/ha, rated visually after about 3 weeks vs untreated controls
Procedure: as §3

[15] = test system: Stellaria media; assay: as above; conditions: application rate 320 g/ha, rated visually after about 3 weeks vs untreated controls
Procedure: as §3

[16] = test system: Setaria viridis; assay: Pre-emergence herbicidal action, greenhouse, 320 g/ha; conditions: application rate 320 g/ha, Table B11
Excerpt: (§4) Seeds of monocotyledonous and dicotyledonous weed plants and crop plants were placed in plastic or organic planting pots and covered with soil. The compounds of the invention, formulated in the form of wettable powders (WP) or as emulsion concentrates (EC), were then applied to the surface of the covering soil as aqueous suspension or emulsion with addition of 0.5% additive at a water application rate equivalent to […]. After the treatment, the pots were placed in a greenhouse and kept under good growth conditions for the test plants. After about 3 weeks, the effect of the preparations is scored visually in comparison with untreated controls as percentages. For example, 100% activity=the plants have died, 0% activity=like control plants. Tables B1 to B14 below show the effects of selected compounds of the general formula (I) according to Tables I.1 to I.150 on various harmful plants and at an application rate corresponding to 320 g/ha, which were obtained by the experimental procedure mentioned above.

[17] = test system: Digitaria sanguinalis; assay: as above; conditions: application rate 320 g/ha, Table B9
Excerpt: as §4

[18] = test system: Polygonum convolvulus; assay: as above; conditions: application rate 320 g/ha, scored visually after about 3 weeks vs untreated controls
Excerpt: as §4

[19] = test system: Matricaria inodora; assay: as above; conditions: application rate 320 g/ha, scored visually after about 3 weeks vs untreated controls
Excerpt: as §4

[20] = test system: Viola tricolor; assay: as above; conditions: application rate 320 g/ha, Table B8
Excerpt: as §4

[21] = test system: Amaranthus retroflexus; assay: as above; conditions: application rate 320 g/ha, scored visually after about 3 weeks vs untreated controls
Excerpt: as §4

[22] = test system: Stellaria media; assay: as above; conditions: application rate 320 g/ha, scored visually after about 3 weeks vs untreated controls
Excerpt: as §4

[23] = test system: Veronica persica; assay: as above; conditions: application rate 320 g/ha, Table B13
Excerpt: as §4

[24] = test system: Abutilon theophrasti; assay: as above; conditions: application rate 320 g/ha, scored visually after about 3 weeks vs untreated controls
Excerpt: as §4

[25] = test system: Avena fatua; assay: as above; conditions: application rate 320 g/ha, scored visually after about 3 weeks vs untreated controls
Excerpt: as §4

[26] = test system: Pharbitis purpurea; assay: as above; conditions: application rate 320 g/ha, Table B12
Excerpt: as §4

[27] = test system: Alopecurus myosuroides; assay: as above; conditions: application rate 320 g/ha, scored visually after about 3 weeks vs untreated controls
Excerpt: as §4

With CC(=O)OC1CCN(C)C(=O)N1c1cc(C(C)(C)C)no1 (stereo not shown) [I.2-290, 3-(3-tert-Butyl-1,2-oxazol-5-yl)-1-methyl-2-oxohexahydropyrimidin-4-yl Acetate] the “Poa Annua” value [1] was 90%, the Matricaria inodora [2] was 90% and the Amaranthus retroflexus [3] was 100%. For the same compound, the Stellaria media [4] was 100%, the Setaria viridis [5] was 90% and the Abutilon theophrasti [6] was 100%. The “Poa Annua” value [7] was 100%, the Matricaria inodora [8] was 100% and the Amaranthus retroflexus [9] was 100%. The Echinochloa crus-galli [10] was 90% and the Stellaria media [11] was 100%.

In the case of CN1CCC(O)N(c2cc(C(F)(F)F)c(Cl)cn2)C1=O (stereo not shown) [I.1-451], the “Setaria viridis (efficacy in %)” value [12] is reported as 80%, the “Viola tricolor (efficacy in %)” value [13] is reported as 100% and the “Amaranthus retroflexus (efficacy in %)” value [14] is reported as 100%. For the same compound, the “Stellaria media (efficacy in %)” value [15] was 100%, the “Setaria viridis (efficacy in %)” value [16] was 90% and the “Digitaria sanguinalis (efficacy in %)” value [17] was 90%. For the same compound, the “Polygonum convolvulus (efficacy in %)” value [18] was 90%, the “Matricaria inodora (efficacy in %)” value [19] was 100% and the “Viola tricolor (efficacy in %)” value [20] was 100%. For the same compound, the “Amaranthus retroflexus (efficacy in %)” value [21] was 90% and the “Stellaria media (efficacy in %)” value [22] was 100%.

For CN1CCC(O)N(c2cc(C(F)(F)F)ncn2)C1=O (stereo not shown) [I.1-506], the “Setaria viridis (efficacy in %)” value [12] was 100%, the “Amaranthus retroflexus (efficacy in %)” value [14] was 100% and the “Setaria viridis (efficacy in %)” value [16] was 100%. For the same compound, the “Veronica persica (efficacy in %)” value [23] was 80%, the “Abutilon theophrasti (efficacy in %)” value [24] was 80% and the “Digitaria sanguinalis (efficacy in %)” value [17] was 100%. The “Polygonum convolvulus (efficacy in %)” value [18] was 100%, the “Matricaria inodora (efficacy in %)” value [19] was 100% and the “Viola tricolor (efficacy in %)” value [20] was 100%. For the same compound, the “Amaranthus retroflexus (efficacy in %)” value [21] was 90%, the “Avena fatua (efficacy in %)” value [25] was 80% and the “Pharbitis purpurea (efficacy in %)” value [26] was 100%. For the same compound, the “Alopecurus myosuroides (efficacy in %)” value [27] was 90% and the “Stellaria media (efficacy in %)” value [22] was 100%.

In the case of CC(=O)OC1N(c2cc(C(C)(C)C)on2)C(=O)N(C)CC12CCC2 (stereo not shown) [I.82-162], the “Poa Annua” value [1] is reported as 90%, the Amaranthus retroflexus [3] is reported as 100% and the “Poa Annua” value [7] is reported as 100%. It also gave a Matricaria inodora [8] of 100%, an Amaranthus retroflexus [9] of 100% and a Stellaria media [11] of 90%.

With CCCC(=O)OC1N(c2cc(C(C)(C)C)on2)C(=O)N(C)CC1(C)C (stereo not shown) [I.66-162] the “Poa Annua” value [1] was 90%, the Amaranthus retroflexus [3] was 100% and the Abutilon theophrasti [6] was 100%. The “Poa Annua” value [7] was 100%, the Matricaria inodora [8] was 100% and the Amaranthus retroflexus [9] was 90%. The Echinochloa crus-galli [10] was 90%.

In the case of CN1CCC(O)N(c2cc(C(F)(F)F)c(Br)cn2)C1=O (stereo not shown) [I.1-464], the “Viola tricolor (efficacy in %)” value [13] is reported as 100%, the “Amaranthus retroflexus (efficacy in %)” value [14] is reported as 100% and the “Stellaria media (efficacy in %)” value [15] is reported as 90%. For the same compound, the “Setaria viridis (efficacy in %)” value [16] was 100%, the “Veronica persica (efficacy in %)” value [23] was 100% and the “Abutilon theophrasti (efficacy in %)” value [24] was 100%. For the same compound, the “Digitaria sanguinalis (efficacy in %)” value [17] was 100%, the “Polygonum convolvulus (efficacy in %)” value [18] was 100% and the “Matricaria inodora (efficacy in %)” value [19] was 100%. For the same compound, the “Viola tricolor (efficacy in %)” value [20] was 100%, the “Amaranthus retroflexus (efficacy in %)” value [21] was 100% and the “Avena fatua (efficacy in %)” value [25] was 80%. The “Pharbitis purpurea (efficacy in %)” value [26] was 100%, the “Alopecurus myosuroides (efficacy in %)” value [27] was 80% and the “Stellaria media (efficacy in %)” value [22] was 100%.

CC(=O)OC1CCN(C)C(=O)N1C1=NOC(C)(C)C1 (stereo not shown) [I.2-709] was tested, and the “Veronica persica (efficacy in %)” value [23] was 100%, the “Abutilon theophrasti (efficacy in %)” value [24] was 80% and the “Digitaria sanguinalis (efficacy in %)” value [17] was 90%. The “Polygonum convolvulus (efficacy in %)” value [18] was 100%, the “Matricaria inodora (efficacy in %)” value [19] was 100% and the “Viola tricolor (efficacy in %)” value [20] was 100%. The “Pharbitis purpurea (efficacy in %)” value [26] was 100%, the “Alopecurus myosuroides (efficacy in %)” value [27] was 90% and the “Stellaria media (efficacy in %)” value [22] was 100%.
